Legend:
Assay type in all cases: functional
Acinetobacter baumannii [1] = assay: Potentiation of clarithromycin-induced antibacterial activity against Acinetobacter baumannii 5197 assessed as fold reduction in clarithromycin MIC at 7.5 uM incubated for 16 hrs by broth microdilution method
Acinetobacter baumannii [2] = assay: Antibacterial activity against Acinetobacter baumannii 3560 assessed as reduction in microbial growth incubated for 16 hrs by broth microdilution method
Acinetobacter baumannii [3] = assay: Antibacterial activity against Acinetobacter baumannii 4025 assessed as reduction in microbial growth incubated for 16 hrs by broth microdilution method
Acinetobacter baumannii [4] = assay: Antibacterial activity against Acinetobacter baumannii 4448 assessed as reduction in microbial growth incubated for 16 hrs by broth microdilution method
Acinetobacter baumannii [5] = assay: Potentiation of clarithromycin-induced antibacterial activity against Acinetobacter baumannii 4026 assessed as fold reduction in clarithromycin MIC at 7.5 uM incubated for 16 hrs by broth microdilution method
Acinetobacter baumannii [6] = assay: Potentiation of clarithromycin-induced antibacterial activity against Acinetobacter baumannii 3560 assessed as fold reduction in clarithromycin MIC at 7.5 uM incubated for 16 hrs by broth microdilution method
Acinetobacter baumannii [7] = assay: Potentiation of clarithromycin-induced antibacterial activity against Acinetobacter baumannii 3806 assessed as fold reduction in clarithromycin MIC at 7.5 uM incubated for 16 hrs by broth microdilution method
Acinetobacter baumannii [8] = assay: Antibacterial activity against Acinetobacter baumannii 3927 assessed as reduction in microbial growth incubated for 16 hrs by broth microdilution method
Acinetobacter baumannii [9] = assay: Potentiation of clarithromycin-induced antibacterial activity against Acinetobacter baumannii 4027 assessed as fold reduction in clarithromycin MIC at 7.5 uM incubated for 16 hrs by broth microdilution method
Acinetobacter baumannii [10] = assay: Antibacterial activity against Acinetobacter baumannii 5711 assessed as reduction in microbial growth incubated for 16 hrs by broth microdilution method
Acinetobacter baumannii [11] = assay: Potentiation of clarithromycin-induced antibacterial activity against Acinetobacter baumannii AB5075 assessed as clarithromycin MIC at 5 uM incubated for 16 hrs by broth microdilution method (reference value: […] ug/ml)
Acinetobacter baumannii [12] = assay: Potentiation of clarithromycin-induced antibacterial activity against Acinetobacter baumannii 8967 assessed as fold reduction in clarithromycin MIC at 7.5 uM incubated for 16 hrs by broth microdilution method
Acinetobacter baumannii [13] = assay: Antibacterial activity against Acinetobacter baumannii 5197 assessed as reduction in microbial growth incubated for 16 hrs by broth microdilution method
Acinetobacter baumannii [14] = assay: Antibacterial activity against Acinetobacter baumannii 4269 assessed as reduction in microbial growth incubated for 16 hrs by broth microdilution method
Acinetobacter baumannii [15] = assay: Antibacterial activity against Acinetobacter baumannii 4957 assessed as reduction in microbial growth incubated for 16 hrs by broth microdilution method
Acinetobacter baumannii [16] = assay: Antibacterial activity against Acinetobacter baumannii 4498 assessed as reduction in microbial growth incubated for 16 hrs by broth microdilution method
Acinetobacter baumannii [17] = assay: Potentiation of clarithromycin-induced antibacterial activity against Acinetobacter baumannii 4490 assessed as fold reduction in clarithromycin MIC at 7.5 uM incubated for 16 hrs by broth microdilution method
Acinetobacter baumannii [18] = assay: Antibacterial activity against Acinetobacter baumannii 4490 assessed as reduction in microbial growth incubated for 16 hrs by broth microdilution method
Acinetobacter baumannii [19] = assay: Potentiation of clarithromycin-induced antibacterial activity against Acinetobacter baumannii 5711 assessed as fold reduction in clarithromycin MIC at 7.5 uM incubated for 16 hrs by broth microdilution method
Acinetobacter baumannii [20] = assay: Antibacterial activity against Acinetobacter baumannii 4857 assessed as reduction in microbial growth incubated for 16 hrs by broth microdilution method
Acinetobacter baumannii [21] = assay: Antibacterial activity against Acinetobacter baumannii 3806 assessed as reduction in microbial growth incubated for 16 hrs by broth microdilution method
Acinetobacter baumannii [22] = assay: Potentiation of clarithromycin-induced antibacterial activity against Acinetobacter baumannii 4857 assessed as fold reduction in clarithromycin MIC at 7.5 uM incubated for 16 hrs by broth microdilution method
Acinetobacter baumannii [23] = assay: Potentiation of clarithromycin-induced antibacterial activity against Acinetobacter baumannii 4448 assessed as fold reduction in clarithromycin MIC at 7.5 uM incubated for 16 hrs by broth microdilution method
Acinetobacter baumannii [24] = assay: Potentiation of clarithromycin-induced antibacterial activity against Acinetobacter baumannii 4269 assessed as fold reduction in clarithromycin MIC at 7.5 uM incubated for 16 hrs by broth microdilution method
Acinetobacter baumannii [25] = assay: Potentiation of clarithromycin-induced antibacterial activity against Acinetobacter baumannii 4498 assessed as fold reduction in clarithromycin MIC at 7.5 uM incubated for 16 hrs by broth microdilution method
Acinetobacter baumannii [26] = assay: Antibacterial activity against Acinetobacter baumannii 4052 assessed as reduction in microbial growth incubated for 16 hrs by broth microdilution method
Acinetobacter baumannii [27] = assay: Potentiation of clarithromycin-induced antibacterial activity against Acinetobacter baumannii 4991 assessed as fold reduction in clarithromycin MIC at 7.5 uM incubated for 16 hrs by broth microdilution method
Acinetobacter baumannii [28] = assay: Potentiation of clarithromycin-induced antibacterial activity against Acinetobacter baumannii AB5075 assessed as clarithromycin MIC at 7.5 uM incubated for 16 hrs by broth microdilution method (reference value: […] ug/ml)
Acinetobacter baumannii [29] = assay: Potentiation of clarithromycin-induced antibacterial activity against Acinetobacter baumannii 3785 assessed as fold reduction in clarithromycin MIC at 7.5 uM incubated for 16 hrs by broth microdilution method
Acinetobacter baumannii [30] = assay: Potentiation of clarithromycin-induced antibacterial activity against Acinetobacter baumannii 5001 assessed as fold reduction in clarithromycin MIC at 7.5 uM incubated for 16 hrs by broth microdilution method
Acinetobacter baumannii [31] = assay: Potentiation of clarithromycin-induced antibacterial activity against Acinetobacter baumannii 4456 assessed as fold reduction in clarithromycin MIC at 7.5 uM incubated for 16 hrs by broth microdilution method
Acinetobacter baumannii [32] = assay: Antibacterial activity against Acinetobacter baumannii 4027 assessed as reduction in microbial growth incubated for 16 hrs by broth microdilution method
Acinetobacter baumannii [33] = assay: Antibacterial activity against Acinetobacter baumannii 5001 assessed as reduction in microbial growth incubated for 16 hrs by broth microdilution method
Acinetobacter baumannii [34] = assay: Antibacterial activity against Acinetobacter baumannii 4026 assessed as reduction in microbial growth incubated for 16 hrs by broth microdilution method
Acinetobacter baumannii [35] = assay: Antibacterial activity against Acinetobacter baumannii 4878 assessed as reduction in microbial growth incubated for 16 hrs by broth microdilution method
Acinetobacter baumannii [36] = assay: Potentiation of clarithromycin-induced antibacterial activity against Acinetobacter baumannii 4795 assessed as fold reduction in clarithromycin MIC at 7.5 uM incubated for 16 hrs by broth microdilution method
Acinetobacter baumannii [37] = assay: Antibacterial activity against Acinetobacter baumannii 5256 assessed as reduction in microbial growth incubated for 16 hrs by broth microdilution method
Acinetobacter baumannii [38] = assay: Potentiation of clarithromycin-induced antibacterial activity against Acinetobacter baumannii 3927 assessed as fold reduction in clarithromycin MIC at 7.5 uM incubated for 16 hrs by broth microdilution method
Acinetobacter baumannii [39] = assay: Antibacterial activity against Acinetobacter baumannii 3785 assessed as reduction in microbial growth incubated for 16 hrs by broth microdilution method
Acinetobacter baumannii [40] = assay: Antibacterial activity against Acinetobacter baumannii 8967 assessed as reduction in microbial growth incubated for 16 hrs by broth microdilution method
Acinetobacter baumannii [41] = assay: Antibacterial activity against Acinetobacter baumannii 4991 assessed as reduction in microbial growth incubated for 16 hrs by broth microdilution method

MIC (Acinetobacter baumannii [2]): 25 µM
MIC (Acinetobacter baumannii [3]): 25 µM
MIC (Acinetobacter baumannii [4]): 25 µM
MIC (Acinetobacter baumannii [8]): 25 µM
MIC (Acinetobacter baumannii [10]): 25 µM
MIC (Acinetobacter baumannii [11]): 4 µg/mL
MIC (Acinetobacter baumannii [13]): 25 µM
MIC (Acinetobacter baumannii [14]): 25 µM
MIC (Acinetobacter baumannii [15]): 25 µM
MIC (Acinetobacter baumannii [16]): 25 µM
MIC (Acinetobacter baumannii [18]): 25 µM
MIC (Acinetobacter baumannii [20]): 25 µM
MIC (Acinetobacter baumannii [21]): 25 µM
MIC (Acinetobacter baumannii [26]): 25 µM
MIC (Acinetobacter baumannii [28]): 0.25 µg/mL
MIC (Acinetobacter baumannii [32]): 25 µM
MIC (Acinetobacter baumannii [33]): 25 µM
MIC (Acinetobacter baumannii [34]): 25 µM
MIC (Acinetobacter baumannii [35]): 25 µM
MIC (Acinetobacter baumannii [37]): 25 µM
MIC (Acinetobacter baumannii [39]): 25 µM
MIC (Acinetobacter baumannii [40]): 25 µM
MIC (Acinetobacter baumannii [41]): 25 µM
SMILES: Cl.Nc1nc(-c2ccc(NC(=O)Nc3cc(Br)cc(Br)c3)cc2)c[nH]1
fold change (FC) (Acinetobacter baumannii [1]): 16
fold change (FC) (Acinetobacter baumannii [5]): 16
fold change (FC) (Acinetobacter baumannii [6]): 16
fold change (FC) (Acinetobacter baumannii [7]): 16
fold change (FC) (Acinetobacter baumannii [9]): 16
fold change (FC) (Acinetobacter baumannii [12]): 16
fold change (FC) (Acinetobacter baumannii [17]): 16
fold change (FC) (Acinetobacter baumannii [19]): 16
fold change (FC) (Acinetobacter baumannii [22]): 16
fold change (FC) (Acinetobacter baumannii [23]): 16
fold change (FC) (Acinetobacter baumannii [24]): 16
fold change (FC) (Acinetobacter baumannii [25]): 16
fold change (FC) (Acinetobacter baumannii [27]): 16
fold change (FC) (Acinetobacter baumannii [29]): 16
fold change (FC) (Acinetobacter baumannii [30]): 16
fold change (FC) (Acinetobacter baumannii [31]): 16
fold change (FC) (Acinetobacter baumannii [36]): 16
fold change (FC) (Acinetobacter baumannii [38]): 16

— ChEMBL document CHEMBL4725412, “Augmenting the Activity of Macrolide Adjuvants against Acinetobacter baumannii” (2020)
